Tests used:
[1] = tested on: human cytomegalovirus (HCMV); assay: HCMV-EYFP replication in human embryonic lung fibroblasts (HEL), fluorescence-based antiviral assay; type: cell-based; conditions: HCMV-EYFP-infected HEL cells, 48 h incubation; read-out: 50% inhibitory concentration (IC50), EYFP emission reduced by half
Procedure: Furthermore, the sensitivity of HCMV replication to B-OT in human mammalian cells was investigated. For this purpose, experiments were performed as described in the work of Dal Pozzo et al. 2008 with B-OT: Human embryonic lung fibroblasts (HEL) were infected with recombinant HCMV EYFP viruses additionally encoding enhanced yellow fluorescent protein (EYFP) (Dal Pozzo F, et al., 2008). As a measure of viral replication after infection with HCMV-EYFP, the emission of the EYFP protein was measured (excitation wavelength: 485 nm/emission: 530 nm). The constant and low cell-associated background emission measured in an automated manner was subtracted from the fluorescence emission value. To test the antiviral effect of B-OT, HCMV-EYFP-infected cells were incubated for 48 h with different B-OT concentrations (0 to 20 mM B-OT). Dose-dependent inhibition of fluorescence (as a measure of viral replication) was evident. The required compound concentration that reduced EYFP emission by half compared with untreated controls (0 mM B-OT) was defined as the 50% inhibitory concentration (IC50) in the fluorescence-based antiviral assay. The IC50 determined here was 0.5 mM B-OT.

interleukin-6 (IL-6) = assay: Individual curative trials in hospitalized COVID-19 patients: interleukin-6 level; type: in vivo, human
SARS-CoV-2 [2] = assay: Individual curative trials in hospitalized COVID-19 patients: viral load by PCR; type: in vivo, human; conditions: daily less than 20 mg B-OT per 70 kg body weight over 7 days
C-reactive protein (CRP) = assay: Individual curative trials in hospitalized COVID-19 patients: C-reactive protein level; type: in vivo, human; set-up: unit not given here
[3] = In vivo pharmacokinetics: blood-brain barrier penetration; conditions: in vivo pharmacokinetics data
Text: A preferred inhibitory thiamine analog is the substance benfo-oxythiamine (B-OT). B-OT is a precursor (“pro-pharmacon”, “prodrug”) of oxythiamine, can be applied orally and releases oxythiamine shortly after its uptake into the mammalian organism. Via the bloodstream, B-OT can reach all cells in all parts of the body.

SARS-CoV-2 [4] = type: cell-based; conditions: 25 μM resveratrol for 48 h, Caco-2 cells
[5] = tested on: SARS-CoV-2 infected Caco-2 cells; conditions: human
HeLa cells = conditions: cited from earlier work
TKTL1 promoter = tested on: TKTL1 promoter; set-up: dose or concentration left out as unconfirmed; conditions: HeLa cells, resveratrol for 48 h; cited from earlier work
TKTL1 mRNA = type: cell-based, human; conditions: different resveratrol concentrations, 24 h
[6] = daily less than 20 mg B-OT per 70 kg, after 7 days
[7] = hospitalized COVID-19 patients, start of therapy

C/C(=C(\CCOP(=O)(O)O)SC(=O)c1ccccc1)N(C=O)Cc1cnc(C)[nH]c1=O [B-OT, benfo-oxythiamine]
IC50 [1]: 500 µM
average IL-6 level under 7-day B-OT therapy (interleukin-6 (IL-6); [6]): 5 pg/mL
average IL-6 level before B-OT therapy (interleukin-6 (IL-6); [7]): 63 pg/mL
viral load as detected by PCR (SARS-CoV-2 [2]): significant reduction in viral load
average CRP level under 7-day B-OT therapy (C-reactive protein (CRP); [6]): 5
average CRP level before B-OT therapy (C-reactive protein (CRP); [7]): 77

Cc1ncc(C[n+]2csc(CCO)c2C)c(=O)[nH]1 [oxythiamine]
blood-brain barrier penetration [3]: can penetrate the blood-brain barrier

Oc1ccc(C=Cc2cc(O)cc(O)c2)cc1 [resveratrol]
decrease of replication ability of SARS-CoV-2 viruses compared to the control (SARS-CoV-2 [4]): 68%
viability of Caco-2 cells [5]: 93%
viability of HeLa cells (HeLa cells): significant decrease in the viability of HeLa cells
reduction in TKTL1 promoter activity compared to untreated cells (TKTL1 promoter): 75%
reduction of TKTL1 mRNA (TKTL1 mRNA): the higher the concentration the stronger the reduction

— patent US20240374623A1, “TKTL1 INHIBITORS FOR ANTIVIRAL THERAPY” (Tavargenix GmbH, priority 2021, published 2024)
